In PubChem BioAssay AID248 (DTP/NCI, 2004):
Where “and” joins values, the source holds several entries; their conditions need not be identical. Equal values may be shown once. Toxic doses and inconclusive results are not listed. Rule as the data show it: active = T/C of 150% or more; inactive = T/C below 125%.

System: L1210 leukemia ip in BDF1 mice, survival T/C
Assay: NCI In Vivo Anticancer Drug Screen. Data for tumor model L1210 Leukemia (intraperitoneal) in B6D2F1 (BDF1) mice
Details: endpoint: mean survival time, higher = longer survival
Outline: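 Read-out is survival time, reported as the treated-group measurement over the vehicle-control measurement.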

[1] = dose: 5.0 mg/kg/injection, schedule: Q01DX001 (ip), vehicle: saline
[2] = dose: 100.0 mg/kg/injection, schedule: Q01DX001 (ip), vehicle: saline
[3] = dose: 200.0 mg/kg/injection, schedule: Q01DX001 (ip), vehicle: saline
[4] = dose: 400.0 mg/kg/injection, schedule: Q01DX001 (ip), vehicle: saline
[5] = dose: 50.0 mg/kg/injection, schedule: Q01DX009 (ip), vehicle: saline
[6] = dose: 100.0 mg/kg/injection, schedule: Q01DX009 (ip), vehicle: saline
[7] = dose: 100.0 mg/kg/injection, schedule: Q04DX003 (ip), vehicle: Klucel (hydroxypropylcellulose) (HPC)
[8] = dose: 200.0 mg/kg/injection, schedule: Q04DX003 (ip), vehicle: Klucel (hydroxypropylcellulose) (HPC)
[9] = dose: 100.0 mg/kg/injection, schedule: Q01DX009 (ip), vehicle: Klucel (hydroxypropylcellulose) (HPC)
[10] = dose: 200.0 mg/kg/injection, schedule: Q01DX009 (ip), vehicle: Klucel (hydroxypropylcellulose) (HPC)
[11] = dose: 400.0 mg/kg/injection, schedule: Q01DX009 (ip), vehicle: Klucel (hydroxypropylcellulose) (HPC)
[12] = dose: 12.5 mg/kg/injection, schedule: Q01DX009 (ip), vehicle: saline
[13] = dose: 12.5 mg/kg/injection, schedule: Q04DX003 (ip), vehicle: saline
[14] = dose: 25.0 mg/kg/injection, schedule: Q01DX009 (ip), vehicle: saline
[15] = dose: 25.0 mg/kg/injection, schedule: Q04DX003 (ip), vehicle: saline
[16] = dose: 50.0 mg/kg/injection, schedule: Q04DX003 (ip), vehicle: saline
[17] = dose: 100.0 mg/kg/injection, schedule: Q04DX003 (ip), vehicle: saline
[18] = dose: 200.0 mg/kg/injection, schedule: Q01DX009 (ip), vehicle: saline
[19] = dose: 200.0 mg/kg/injection, schedule: Q04DX003 (ip), vehicle: saline
[20] = dose: 400.0 mg/kg/injection, schedule: Q01DX009 (ip), vehicle: saline
[21] = dose: 400.0 mg/kg/injection, schedule: Q04DX003 (ip), vehicle: saline

Measured: T/C

CCOP(=O)(OCC)Oc1ccc([N+](=O)[O-])c(CC)c1
inactive: [1] 100 % of control | dose: 10.0 mg/kg/injection, schedule: Q01DX001 (ip), vehicle: saline 100 % of control

CCC1=C(c2ccc(OC)cc2)CCC(C(=O)O)C1C (stereo unspecified)
inactive: dose: 6.0 mg/kg/injection, schedule: Q01DX Z (ip), vehicle: saline 100 % of control | dose: 12.0 mg/kg/injection, schedule: Q01DX Z (ip), vehicle: saline 96 % of control | dose: 25.0 mg/kg/injection, schedule: Q01DX Z (ip), vehicle: saline 102 % of control | dose: 50.0 mg/kg/injection, schedule: Q01DX Z (ip), vehicle: saline 100 % of control | dose: 100.0 mg/kg/injection, schedule: Q01DX Z (ip), vehicle: saline 102 % of control | dose: 200.0 mg/kg/injection, schedule: Q01DX Z (ip), vehicle: saline 100 % of control | dose: 400.0 mg/kg/injection, schedule: Q01DX Z (ip), vehicle: saline 110 % of control | dose: 800.0 mg/kg/injection, schedule: Q01DX Z (ip), vehicle: saline 98 % of control and 120 % of control

CCCCCCCCCC(=S)N1CCN(c2ccccc2)CC1
inactive: [2] 95 % of control | [3] 93 % of control | [4] 90 % of control

COc1ccccc1OCCOCCN(C/C=C(\C)CCC=C(C)C)C/C=C(\C)CCC=C(C)C
inactive: [5] 100 % of control | [6] 96 % of control | [7] 102 % of control | [8] 98 % of control

O=C(Nc1cc(C(F)(F)F)cc(C(F)(F)F)c1)Nc1ccccc1C(F)(F)F
inactive: [9] 98 % of control | [10] 102 % of control | [11] 90 % of control

C=C(Cl)C[N+]12CN3CN(CN(C3)C1)C2
inactive: [12] 108 % of control | [13] 102 % of control | [14] 101 % of control | [15] 104 % of control | [5] 111 % of control | [16] 102 % of control

NNC(=O)Cc1ccc(Cl)c2ccccc12
inactive: [7] 104 % of control | [8] 91 % of control

CCCCCC(N)CC(=O)O (stereo unspecified)
inactive: [6] 105 % of control | [17] 102 % of control | [18] 96 % of control | [19] 96 % of control | [20] 96 % of control | [21] 105 % of control

CNCCC(=O)c1ccccc1
inactive: [7] 99 % of control | [8] 99 % of control

COc1cc(OC)c2c(=O)c(O)c(-c3ccc(OC)c(OC)c3)oc2c1
inactive: dose: 50.0 mg/kg/injection, schedule: Q01DX001 (ip), vehicle: saline 91 % of control | [2] 98 % of control | [3] 98 % of control | [4] 96 % of control

O=c1[nH]c(=O)c2[nH]c(Br)c(Br)c2[nH]1
inactive: [2] 93 % of control | [3] 96 % of control | [4] 93 % of control

CC1=NCCN=C(C)C1
inactive: [17] 96 % of control | [19] 98 % of control | [21] 112 % of control

C=C1C(=O)OC2CCCC/C=C\C12 (stereo unspecified)
inactive: [5] 95 % of control | [6] 98 % of control | [18] 95 % of control

Nc1ccc(Cl)cc1
inactive: dose: 100.0 mg/kg/injection, schedule: Q01DX001 (ip), vehicle: carboxymethylcellulose (CMC) 98 % of control | dose: 200.0 mg/kg/injection, schedule: Q01DX001 (ip), vehicle: carboxymethylcellulose (CMC) 101 % of control | dose: 400.0 mg/kg/injection, schedule: Q01DX001 (ip), vehicle: carboxymethylcellulose (CMC) 110 % of control

NC(=S)N/N=C/c1cc(Br)c(O)c(Br)c1
inactive: [9] 104 % of control | [10] 91 % of control | [11] 98 % of control

CC1=CC(=O)C=CC1=O
inactive: [1] 107 % of control

CCCCNCC1COc2cccc(OCC)c2O1 (stereo unspecified)
inactive: dose: 6.25 mg/kg/injection, schedule: Q01DX009 (ip), vehicle: saline 107 % of control | [12] 105 % of control | [13] 106 % of control | [14] 108 % of control | [15] 95 % of control | [5] 113 % of control | [16] 108 % of control | [2] 103 % of control | [17] 95 % of control

CCC(N)(CC)C(=O)O
inactive: [5] 102 % of control | [6] 98 % of control | [18] 95 % of control

OCC1(O)OCC(O)C(O)C1O (stereo unspecified)
inactive: [6] 89 % of control | [18] 94 % of control | [20] 90 % of control | dose: 800.0 mg/kg/injection, schedule: Q01DX009 (ip), vehicle: saline 90 % of control

COC1=CCC2C(=O)OC(=O)C2C1 (stereo unspecified)
inactive: [14] 90 % of control | [5] 94 % of control | [6] 100 % of control | [18] 109 % of control | [20] 100 % of control

O/N=C1\CCCc2sccc21
inactive: dose: 100.0 mg/kg/injection, schedule: Q01DX001 (ip), vehicle: steriod suspending solution 114 % of control | dose: 200.0 mg/kg/injection, schedule: Q01DX001 (ip), vehicle: steriod suspending solution 98 % of control | dose: 400.0 mg/kg/injection, schedule: Q01DX001 (ip), vehicle: steriod suspending solution 98 % of control

O=C(CCl)C1C(O)=[N+](c2ccccc2)C2C=CC=CN12 (stereo unspecified)
inactive: [14] 92 % of control | [15] 92 % of control | [5] 89 % of control | [16] 102 % of control | [2] 105 % of control | [6] 87 % of control | [17] 95 % of control | dose: 150.0 mg/kg/injection, schedule: Q01DX009 (ip), vehicle: saline 95 % of control | dose: 225.0 mg/kg/injection, schedule: Q01DX009 (ip), vehicle: saline 95 % of control | dose: 335.0 mg/kg/injection, schedule: Q01DX009 (ip), vehicle: saline 95 % of control

Cc1ccc2ccccc2c1NCCC(=O)O
inactive: dose: 100.0 mg/kg/injection, schedule: Q01DX001 (ip), vehicle: Klucel (hydroxypropylcellulose) (HPC) 101 % of control | [7] 104 % of control | dose: 200.0 mg/kg/injection, schedule: Q01DX001 (ip), vehicle: Klucel (hydroxypropylcellulose) (HPC) 100 % of control | [8] 98 % of control | dose: 400.0 mg/kg/injection, schedule: Q01DX001 (ip), vehicle: Klucel (hydroxypropylcellulose) (HPC) 91 % of control | dose: 400.0 mg/kg/injection, schedule: Q04DX003 (ip), vehicle: Klucel (hydroxypropylcellulose) (HPC) 102 % of control

O=C1N(c2cc([N+](=O)[O-])ccc2F)C(=O)C(F)(F)C1(F)F
inactive: dose: 100.0 mg/kg/injection, schedule: Q01DX001 (ip), vehicle: saline with Tween-80 102 % of control | dose: 200.0 mg/kg/injection, schedule: Q01DX001 (ip), vehicle: saline with Tween-80 97 % of control

COc1ccc(NC(=O)Nc2ccc(F)c([N+](=O)[O-])c2)c(Cl)c1
inactive: dose: 25.0 mg/kg/injection, schedule: Q01DX009 (ip), vehicle: saline with Tween-80 95 % of control | dose: 50.0 mg/kg/injection, schedule: Q01DX009 (ip), vehicle: saline with Tween-80 100 % of control | dose: 100.0 mg/kg/injection, schedule: Q01DX009 (ip), vehicle: saline with Tween-80 96 % of control
